The results in this text go back to patent US4680284A, “Modified phenylalanine peptidylaminodiols” (Abbott Laboratories, priority 1986, dated 1987).

This experiment has as its target T1, human renal renin (Homo sapiens, UniProt P00797).
T1 construct: human renal renin, free from acid proteolytic activity; from tissue
T1 sequence (P00797 67-406): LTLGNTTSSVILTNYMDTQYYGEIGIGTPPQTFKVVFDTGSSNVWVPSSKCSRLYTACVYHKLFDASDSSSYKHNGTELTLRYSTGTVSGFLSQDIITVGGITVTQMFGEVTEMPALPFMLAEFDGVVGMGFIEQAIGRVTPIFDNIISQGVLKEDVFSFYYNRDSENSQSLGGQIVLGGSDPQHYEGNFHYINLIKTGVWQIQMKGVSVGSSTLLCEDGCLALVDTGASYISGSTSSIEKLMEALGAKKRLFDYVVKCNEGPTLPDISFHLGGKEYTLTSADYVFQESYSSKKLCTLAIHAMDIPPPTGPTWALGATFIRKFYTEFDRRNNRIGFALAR
Nature of the experiment: In vitro inhibition of human renal renin (angiotensin I formation measured by radioimmunoassay). In kind it is biochemical. The note with it: human renal renin with human renin substrate (angiotensinogen), 37° C., pH 6.0.

`CCOC(=O)NC1(C(=O)N[C@@H](Cc2c[nH]cn2)C(=O)N[C@@H](CC2CCCCC2)[C@@H](O)[C@@H](O)CC(C)C)Cc2ccccc2C1` [Example 5, EtOC-AICA-His Amide of 2(S)-Amino-1-cyclohexyl-3(R),4(S)-dihydroxy-6-methylheptane] came in with an IC50 of 15 nM. This counts as double-digit nanomolar.

For the molecule `CC(C)C[C@H](O)[C@H](O)[C@H](CC1CCCCC1)NC(=O)[C@H](Cc1c[nH]cn1)NC(=O)C1(N)Cc2ccccc2C1` [Example 7, AICA-His Amide of 2(S)-Amino-1-cyclohexyl-3(R),4(S)-dihydroxy-6-methylheptane], 300 nM corresponded to half-maximal inhibition (IC50). Against the preceding molecule, the IC50 is about 20-fold higher.

As for `CCOC(=O)NC1(C(=O)N[C@@H](Cc2c[nH]cn2)C(=O)N[C@@H](CC2CCCCC2)[C@@H](O)[C@@H](O)CC(C)C)CCc2ccccc2C1` (stereo partly drawn) [Example 10, EtOC-(R,S)-ATCA-His Amide of 2(S)-Amino-1-cyclohexyl-3(R),4(S)-dihydroxy-6-methylheptane], the IC50 worked out at 5 nM.

`CCOC(=O)N1Cc2ccccc2CC1C(=O)N[C@@H](Cc1c[nH]cn1)C(=O)N[C@@H](CC1CCCCC1)[C@@H](O)[C@@H](O)CC(C)C` (stereo partly drawn) [Example 13, EtOC-TIC-His Amide of 2(S)-Amino-1-cyclohexyl-3(R),4(S)-dihydroxy-6-methylheptane] had an IC50 of 10 nM. Against the preceding molecule, the IC50 is about 2-fold higher.

As to `CC(C)C[C@H](O)[C@H](O)[C@H](CC1CCCCC1)NC(=O)[C@H](Cc1c[nH]cn1)NC(=O)C1Cc2ccccc2C(=O)N1` (stereo partly drawn) [Example 15, OTIC-His Amide of 2(S)-Amino-1-cyclohexyl-3(R),4(S)-dihydroxy-6-methylheptane], half-maximal inhibition (IC50) required 100 nM.

The molecule `CC(C)C[C@H](O)[C@H](O)[C@H](CC1CCCCC1)NC(=O)[C@H](Cc1c[nH]cn1)NC(=O)[C@@](C)(N)Cc1ccccc1` [Example 17, AMPA-His Amide of 2(S)-Amino-1-cyclohexyl-3(R),4(S)-dihydroxy-6-methylheptane] came in with an IC50 of 10 nM.

Take `CC(=O)N[C@@](C)(Cc1ccccc1)C(=O)N[C@@H](Cc1c[nH]cn1)C(=O)N[C@@H](CC1CCCCC1)[C@@H](O)[C@@H](O)CC(C)C` [Example 19, Acetyl-AMPA-His Amide of 2(S)-Amino-1-cyclohexyl-3(R),4(S)-dihydroxy-6-methylheptane]: it took 9 nM to reach half-maximal inhibition (IC50).

The molecule `CC(C)C[C@H](O)[C@H](O)[C@H](CC1CCCCC1)NC(=O)[C@H](Cc1c[nH]cn1)NC(=O)C(N)(Cc1ccccc1)Cc1ccccc1` [Example 21, ADBA-His Amide of 2(S)-Amino-1-cyclohexyl-3(R),4(S)-dihydroxy-6-methylheptane] had an IC50 of 25 nM.
